PubChem BioAssay AID1963958 (Molecular Pharmacology Branch, DTP, NCI, 2024)

Tested on: MDA-MB-231 multicell spheroids, viability
Assay: Anticancer human tumor MDA-MB-231 cell line growth inhibition [PI3K];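 also: spheroids exposed to agents for seven days before reading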;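 as to viability, T/C: percent of vehicle control luminescence with DMSO treated spheroids as 100%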
Conditions: for viability, T/C: stronger effect = lower value
Source text: Combinatorial screen of targeted agents with the PI3K inhibitors inavolisib, alpelisib, duvelisib, and copanlisib in multi-cell type tumor spheroids
A high-throughput screen of multi-cell type tumor spheroids was designed to identify active combinations of targeted small molecules and PI3K pathway inhibitors. Complex spheroids include a stromal component modeled by human endothelial cells (HUVEC) and fibroblasts modeled by human mesenchymal stem cells (MSCs). The concentration ranges selected for each drug and investigational agent were based upon clinically achievable concentrations if the clinical Cmax of the agent was known.
Compounds. The drugs and investigational agents: inavolisib (NSC800729), alpelisib (NSC765974), duvelisib (NSC772469), copanlisib (NSC816437), ipatasertib (NSC767898), afuresertib (NSC778305), talazoparib (NSC767125), sapanisertib (NSC764658), selumetinib (NSC741078), tovorafenib (DAY101, NSC766906), vemurafenib (NSC761431), ravoxertinib (NSC781343), sotorasib (NSC818433), MRTX1133 (NSC 836407), abemaciclib (NSC 768073), palbociclib (NSC758247), venetoclax (NSC 766270), SY5609 (NSC837396), enzalutamide (NSC755605), and darolutamide (NSC825331), were obtained from the National Cancer Institute (NCI) Developmental Therapeutics Program Chemical Repository. The FDA-approved anticancer drug set is available from the NCI Developmental Therapeutics Program. […] The stock solutions were prepared in dimethyl sulfoxide (DMSO, Sigma-Aldrich, St. Louis, MO, cat. D2650) at 800-fold the tested concentration and stored at -70 degrees C prior to their use. All drugs and investigational agents were tested over a range starting from a high concentration at or near the clinical Cmax and decreasing in half-log increments. If the clinical Cmax for an agent had not been determined, the highest concentration tested was 10 microM.
Cell Culture. All cells were maintained in an incubator at 37 degrees C and 5% CO2 with 95% humidity. The PDC lines were cultured according to standard operating procedures established by the NCI PDMR (https://pdmr.cancer.gov/sops/default.htm). All PDCs were thawed and cultured in Matrigel-coated flasks prepared with a working solution of 1X Ham's F-12 nutrient mix, without supplementation (Invitrogen, Waltham, MA, cat. 11765054), 100 U/mL penicillin-streptomycin (Invitrogen, cat. 15140122), and 2.5% Matrigel (Corning Inc., Corning, NY, cat. 354248) for the first three passages. The 354836-022-R-J1-PDC, 475296-252-R-J1-PDC, and 997726-040-R-J2-PDC lines were cultured in 6A media, which includes advanced DMEM/F-12 (Thermo Fisher Scientific, cat. 12634028), 10 mM HEPES (Thermo Fisher Scientific, cat. 15630080), 1X GlutaMAX supplement (Thermo Fisher Scientific, cat. 35050061), 0.1 mg/mL primocin (InvivoGen, San Diego, CA, cat. ant-pm-2), 10% defined fetal bovine serum, heat inactivated (HyClone Laboratories Inc., Logan, UT, cat. SH30070.03HI), 50% L-WRN conditioned media (ATCC, cat. CRL-3276), 1.25 mM N-Acetyl-L-cysteine (Sigma-Aldrich, cat. A9165), 10 mM nicotinamide (Sigma-Aldrich, cat. N0636), 1X B-27 supplement (Thermo Fisher Scientific, cat. 17504044), 1X N-2 supplement (Thermo Fisher Scientific, cat. 17502048), and 10 microM Y-27632 dihydrochloride (Tocris Bioscience, Bristol, United Kingdom, cat. 1254). The 624824-186-R-J2-PDC line was cultured in 6C/Colon 1B media, which includes all 6A media components plus 50 ng/mL human EGF recombinant protein (Thermo Fisher Scientific, cat. PHG0311). […]

[1] = curve of first compound, second compound 0.00316 µM
[2] = curve of first compound, second compound 0.01 µM
[3] = curve of first compound, second compound 0.0316 µM
[4] = curve of first compound, second compound 0.1 µM
[5] = curve of first compound, second compound 0.316 µM
[6] = curve of first compound, second compound 1 µM

C#Cc1c(F)ccc2cc(O)cc(-c3ncc4c(N5CC6CCC(C5)N6)nc(OCC56CCCN5CC(F)C6)nc4c3F)c12 (configuration not stated)
viability, T/C (compound 0.0316 µM): 110% [middle of 4 runs]
viability, T/C (compound 0.1 µM): 104% [middle of 4 runs]
viability, T/C (compound 0.316 µM): 100% [middle of 4 runs]
viability, T/C (compound 1 µM): 98.5% [middle of 4 runs]
viability, T/C (compound 10 µM): 59.5% [middle of 4 runs]
IC50 (curve of compound): > 10 µM

Cn1ncc(Cl)c1-c1cc(C(=O)NC(CN)Cc2cccc(F)c2)sc1Cl (configuration not stated)
viability, T/C (compound 0.0316 µM): 111% [middle of 4 runs]
viability, T/C (compound 0.1 µM): 99.8% [middle of 4 runs]
viability, T/C (compound 0.316 µM): 95.8% [middle of 4 runs]
viability, T/C (compound 1 µM): 77.2% [middle of 4 runs]
viability, T/C (compound 3.16 µM): 52.5% [middle of 4 runs]
viability, T/C (compound 10 µM): 28.8% [middle of 4 runs]
IC50 (curve of compound): 3.47 µM [middle of 4 runs]

CNC(=O)c1ccc(N2C(=S)N(c3ccc(C#N)c(C(F)(F)F)c3)C(=O)C2(C)C)cc1F + CC(Nc1ccc2c(c1)OCCn1cc(N3C(=O)OCC3C(F)F)nc1-2)C(N)=O
IC50 [1]: > 10 µM
IC50 [2]: > 10 µM
IC50 [3]: > 10 µM
IC50 [4]: > 10 µM
IC50 [5]: > 10 µM
IC50 [6]: > 10 µM
viability, T/C (second compound 0.00316 µM, first compound 0.0316 µM): 104%
viability, T/C (second compound 0.00316 µM, first compound 0.1 µM): 97.8%
viability, T/C (second compound 0.00316 µM, first compound 0.316 µM): 103%
viability, T/C (second compound 0.00316 µM, first compound 1 µM): 98%
viability, T/C (second compound 0.00316 µM, first compound 3.16 µM): 103%
viability, T/C (second compound 0.00316 µM, first compound 10 µM): 76.6%
viability, T/C (second compound 0.01 µM, first compound 0.0316 µM): 87.4%
viability, T/C (second compound 0.01 µM, first compound 0.1 µM): 98%
viability, T/C (second compound 0.01 µM, first compound 0.316 µM): 86.6%
viability, T/C (second compound 0.01 µM, first compound 1 µM): 96%
viability, T/C (second compound 0.01 µM, first compound 3.16 µM): 79.5%
viability, T/C (second compound 0.01 µM, first compound 10 µM): 73%
viability, T/C (second compound 0.0316 µM, first compound 0.0316 µM): 75.6%
viability, T/C (second compound 0.0316 µM, first compound 0.1 µM): 82.5%
viability, T/C (second compound 0.0316 µM, first compound 0.316 µM): 75%
viability, T/C (second compound 0.0316 µM, first compound 1 µM): 77.5%
viability, T/C (second compound 0.0316 µM, first compound 3.16 µM): 77.2%
viability, T/C (second compound 0.0316 µM, first compound 10 µM): 60.8%
viability, T/C (second compound 0.1 µM, first compound 0.0316 µM): 72.8%
viability, T/C (second compound 0.1 µM, first compound 0.1 µM): 71.8%
viability, T/C (second compound 0.1 µM, first compound 0.316 µM): 70.7%
viability, T/C (second compound 0.1 µM, first compound 1 µM): 67.2%
viability, T/C (second compound 0.1 µM, first compound 3.16 µM): 64%
viability, T/C (second compound 0.1 µM, first compound 10 µM): 52.5%
viability, T/C (second compound 0.316 µM, first compound 0.0316 µM): 65.1%
viability, T/C (second compound 0.316 µM, first compound 0.1 µM): 66.2%
viability, T/C (second compound 0.316 µM, first compound 0.316 µM): 62.2%
viability, T/C (second compound 0.316 µM, first compound 1 µM): 66.7%
viability, T/C (second compound 0.316 µM, first compound 3.16 µM): 64.7%
viability, T/C (second compound 0.316 µM, first compound 10 µM): 52.2%
viability, T/C (second compound 1 µM, first compound 0.0316 µM): 55.7%
viability, T/C (second compound 1 µM, first compound 0.1 µM): 62.4%
viability, T/C (second compound 1 µM, first compound 0.316 µM): 62.3%
viability, T/C (second compound 1 µM, first compound 1 µM): 60.4%
viability, T/C (second compound 1 µM, first compound 3.16 µM): 58.5%
viability, T/C (second compound 1 µM, first compound 10 µM): 47.4%

Cn1cnc2c(F)c(Nc3ccc(Br)cc3Cl)c(C(=O)NOCCO)cc21 + CC(Nc1ccc2c(c1)OCCn1cc(N3C(=O)OCC3C(F)F)nc1-2)C(N)=O
IC50 [1]: 0.674 µM
IC50 [2]: 1.1 µM
IC50 [3]: 0.0341 µM
IC50 [4]: < 0.00949 µM
IC50 [5]: < 0.00949 µM
IC50 [6]: < 0.00949 µM
viability, T/C (second compound 0.00316 µM, first compound 0.00949 µM): 67.7%
viability, T/C (second compound 0.00316 µM, first compound 0.03 µM): 60%
viability, T/C (second compound 0.00316 µM, first compound 0.0949 µM): 58.2%
viability, T/C (second compound 0.00316 µM, first compound 0.3 µM): 56.2%
viability, T/C (second compound 0.00316 µM, first compound 0.949 µM): 49.4%
viability, T/C (second compound 0.00316 µM, first compound 3 µM): 32%
viability, T/C (second compound 0.01 µM, first compound 0.00949 µM): 56.8%
viability, T/C (second compound 0.01 µM, first compound 0.03 µM): 56.2%
viability, T/C (second compound 0.01 µM, first compound 0.0949 µM): 54.3%
viability, T/C (second compound 0.01 µM, first compound 0.3 µM): 53.9%
viability, T/C (second compound 0.01 µM, first compound 0.949 µM): 53%
viability, T/C (second compound 0.01 µM, first compound 3 µM): 30.8%
viability, T/C (second compound 0.0316 µM, first compound 0.00949 µM): 56.1%
viability, T/C (second compound 0.0316 µM, first compound 0.03 µM): 48.1%
viability, T/C (second compound 0.0316 µM, first compound 0.0949 µM): 46.1%
viability, T/C (second compound 0.0316 µM, first compound 0.3 µM): 44.8%
viability, T/C (second compound 0.0316 µM, first compound 0.949 µM): 43.2%
viability, T/C (second compound 0.0316 µM, first compound 3 µM): 23%
viability, T/C (second compound 0.1 µM, first compound 0.00949 µM): 50.9%
viability, T/C (second compound 0.1 µM, first compound 0.03 µM): 41.7%
viability, T/C (second compound 0.1 µM, first compound 0.0949 µM): 44%
viability, T/C (second compound 0.1 µM, first compound 0.3 µM): 42.1%
viability, T/C (second compound 0.1 µM, first compound 0.949 µM): 36.3%
viability, T/C (second compound 0.1 µM, first compound 3 µM): 16.7%
viability, T/C (second compound 0.316 µM, first compound 0.00949 µM): 42.5%
viability, T/C (second compound 0.316 µM, first compound 0.03 µM): 42%
viability, T/C (second compound 0.316 µM, first compound 0.0949 µM): 40.5%
viability, T/C (second compound 0.316 µM, first compound 0.3 µM): 39.8%
viability, T/C (second compound 0.316 µM, first compound 0.949 µM): 33.4%
viability, T/C (second compound 0.316 µM, first compound 3 µM): 15.4%
viability, T/C (second compound 1 µM, first compound 0.00949 µM): 41.1%
viability, T/C (second compound 1 µM, first compound 0.03 µM): 35.1%
viability, T/C (second compound 1 µM, first compound 0.0949 µM): 38.4%
viability, T/C (second compound 1 µM, first compound 0.3 µM): 37.7%
viability, T/C (second compound 1 µM, first compound 0.949 µM): 33.9%
viability, T/C (second compound 1 µM, first compound 3 µM): 15.3%
